From patent publication US20180339963A1, “ANTICONVULSANT CARBAMATE DERIVATIVES” (Yissum Research Development Company of the Hebrew …, priority 2017, published 2018) come the findings set out here.

Like-named read-outs stand apart in the source and are kept apart here. Some results are limits rather than exact numbers.

The target of one series is T1, hCA I (Homo sapiens, UniProt P00915).
T1 construct: made in house
The experiment in a line: Stopped flow CO2 hydrase assay, hCA I. The format is biochemical. Conditions: mean from 3 assays, read-out: K1, hCAI. The method, then:
(§1) An Applied Photophysics stopped-flow instrument has been used for assaying the CA catalysed CO2 hydration activity. Phenol red (at a concentration of 0.2 mM) has been used as indicator, working at the absorbance maximum of 557 nm, with 20 mM Hepes (pH 7.5) as buffer, and 20 mM Na2SO4 (for maintaining constant the ionic strength), following the initial rates of the CA-catalyzed CO2 hydration reaction for a period of 10-100 s. The CO2 concentrations ranged from 1.7 to 17 mM for the determination of the kinetic parameters and inhibition constants. […] The uncatalyzed rates were determined in the same manner and subtracted from the total observed rates. Stock solutions of inhibitor (0.1 mM) were prepared in distilled-deionized water and dilutions up to 0.01 nM were done thereafter with the assay buffer. […] The inhibition constants were obtained by non-linear least-squares methods using PRISM 3 and the Cheng-Prusoff equation, as reported earlier and represent the mean from at least three different determinations. All CA isofoms were recombinant ones obtained in-house.

Another series concerns the target T2, hCA II (Homo sapiens, UniProt P00918).
T2 construct: made in house
The experiment in a line: Stopped flow CO2 hydrase assay, hCA II. It counts as biochemical. Conditions: mean from 3 assays, read-out: K1, hCA II. As for the experimental part: as §1

The target of a further series is T3, hCA IV (Homo sapiens, UniProt P22748).
T3 construct: made in house
T3 sequence (P22748 19-284): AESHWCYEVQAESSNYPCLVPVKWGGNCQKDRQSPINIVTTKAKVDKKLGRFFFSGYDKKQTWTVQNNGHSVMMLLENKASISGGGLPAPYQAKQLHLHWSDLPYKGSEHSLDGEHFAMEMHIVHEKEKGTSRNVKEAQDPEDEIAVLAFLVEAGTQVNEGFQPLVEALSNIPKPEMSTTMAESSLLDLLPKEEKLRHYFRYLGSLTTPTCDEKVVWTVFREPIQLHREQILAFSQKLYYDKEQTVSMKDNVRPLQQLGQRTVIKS
The experiment in a line: Stopped flow CO2 hydrase assay, hCA IV. It counts as biochemical. Conditions: mean from 3 assays; for Ki: read-out: K1, hCA IV. As for the experimental part: as §1

For another series, the target named is T4, hCA VII (Homo sapiens, UniProt P43166).
T4 construct: made in house
T4 sequence (P43166 whole entry): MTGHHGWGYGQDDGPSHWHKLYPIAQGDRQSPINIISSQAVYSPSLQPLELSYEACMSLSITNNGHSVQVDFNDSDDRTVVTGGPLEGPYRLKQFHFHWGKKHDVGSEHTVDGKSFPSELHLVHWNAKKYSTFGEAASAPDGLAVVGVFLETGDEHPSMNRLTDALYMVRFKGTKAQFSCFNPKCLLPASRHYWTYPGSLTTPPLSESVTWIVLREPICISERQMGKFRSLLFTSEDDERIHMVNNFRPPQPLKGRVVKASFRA
The experiment in a line: Stopped flow CO2 hydrase assay, hCA VII. Conditions: mean from 3 assays, read-out: K1, hCA VII. The format is biochemical. The method, then:
as §1

In the next series the test system is 6 Hz psychomotor seizure. The experiment in a line: 6 Hz psychomotor seizure test in mice. Conditions: Mus musculus, ip, read-out: 6 Hz, number of mice protected/number of mice tested.
Series [1] concerns maximal electroshock seizure (MES). The experiment in a line: Maximal electroshock seizure (MES) test in mice. Conditions: Mus musculus, ip, read-out: MES, number of mice protected/number of mice tested. A general note: In the maximal electroshock model the usual endpoint is tonic extension of the hind limbs.
A further series relates to mice. The experiment in a line: Neurotoxicity (minimal motor impairment, rotarod) in mice. Conditions: mice i.p. (Falling from the rotarod earlier than controls is read as motor impairment.)

T1 sequence (P00915 whole entry): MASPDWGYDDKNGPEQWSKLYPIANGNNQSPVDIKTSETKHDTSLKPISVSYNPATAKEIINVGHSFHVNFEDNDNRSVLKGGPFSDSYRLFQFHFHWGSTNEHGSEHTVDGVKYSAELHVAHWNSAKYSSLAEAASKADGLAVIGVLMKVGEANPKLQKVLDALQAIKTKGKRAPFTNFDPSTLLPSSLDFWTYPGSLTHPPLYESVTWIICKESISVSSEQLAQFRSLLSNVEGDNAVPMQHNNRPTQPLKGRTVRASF

As usually defined, the melting point is the temperature, or range, at which the solid turns liquid. As for `CC(COC(=O)Nc1ccc(S(N)(=O)=O)cc1)CC(C)(C)C` (centres unmarked) [Compound 7, 2,4,4-trimethylpentyl (4-sulfamoylphenyl)carbamate], the melting point was in the range of 199 to 201 °C. For the same compound, on hCA I, the Ki is 83.5 nM. Besides, the Ki at hCA II was 5 nM. Further, the Ki at hCA IV came out at 2760 nM. Also, at hCA VII, the Ki turned out to be 712 nM. Also, in the series on 6 Hz psychomotor seizure (0.5 h), the responders at 30 mg/kg is 25%, the responders at 100 mg/kg was 25% and the responders at 300 mg/kg is 100%. Also, in the series on 6 Hz psychomotor seizure (2 h), the responders at 30 mg/kg stood at 0%, the responders at 100 mg/kg was 50% and the responders at 300 mg/kg is 75%. In series [1] (0.5 h), the responders at 30 mg/kg was 0%, the responders at 100 mg/kg turned out to be 0% and the responders at 300 mg/kg amounted to 0%. Besides, in series [1] (2 h), the responders at 30 mg/kg turned out to be 0%, the responders at 100 mg/kg is 25% and the responders at 300 mg/kg is 50%. Also, the “Tox (motor impairment or sedation), number of animals affected/number of animals tested” value with mice (30 mg/kg, 0.5 h) is given as 0/8. For the same compound, the “Tox (motor impairment or sedation), number of animals affected/number of animals tested” value in the series on mice (30 mg/kg, 2.0 h) was 0/8. The “Tox (motor impairment or sedation), number of animals affected/number of animals tested” value with mice (100 mg/kg, 0.5 h) is listed as 0/8. Moreover, the “Tox (motor impairment or sedation), number of animals affected/number of animals tested” value with mice (100 mg/kg, 2.0 h) is 0/8. In addition, the “Tox (motor impairment or sedation), number of animals affected/number of animals tested” value in the series on mice (300 mg/kg, 0.5 h) is given as 0/8. Besides, the “Tox (motor impairment or sedation), number of animals affected/number of animals tested” value in the series with mice (300 mg/kg, 2.0 h) is given as 0/8.
`CC(C)(C)CCOC(=O)Nc1ccc(S(N)(=O)=O)cc1` [Compound 4, 3,3-dimethylbutyl (4-sulfamoylphenyl)carbamate] showed a melting point of 170 to 173 °C. Also, the Ki at hCA I turned out to be 59.5 nM. For the same compound, the Ki on hCA II amounted to 4.5 nM. The Ki at hCA IV was found to be 1840 nM. The Ki at hCA VII was found to be 44.4 nM. Further, in the series on 6 Hz psychomotor seizure (0.5 h), the responders at 30 mg/kg worked out at 0%, the responders at 100 mg/kg was 0% and the responders at 300 mg/kg was 0%. In the series with 6 Hz psychomotor seizure (2 h), the responders at 30 mg/kg was found to be 0%, the responders at 100 mg/kg worked out at 0% and the responders at 300 mg/kg was found to be 0%. Also, in series [1] (0.5 h), the responders at 30 mg/kg turned out to be 0%, the responders at 100 mg/kg was determined as 0% and the responders at 300 mg/kg was 25%. For the same compound, in series [1] (2 h), the responders at 30 mg/kg amounted to 0%, the responders at 100 mg/kg amounted to 0% and the responders at 300 mg/kg was 25%. Besides, in the series with mice (30 mg/kg, 0.5 h), the “Tox (motor impairment or sedation), number of animals affected/number of animals tested” value is given as 0/8. The “Tox (motor impairment or sedation), number of animals affected/number of animals tested” value in the series on mice (30 mg/kg, 2.0 h) is given as 0/8. Besides, the “Tox (motor impairment or sedation), number of animals affected/number of animals tested” value in the series on mice (100 mg/kg, 0.5 h) is 0/8. Besides, the “Tox (motor impairment or sedation), number of animals affected/number of animals tested” value in the series with mice (100 mg/kg, 2.0 h) is listed as 0/8. Besides, in the series with mice (300 mg/kg, 0.5 h), the “Tox (motor impairment or sedation), number of animals affected/number of animals tested” value is recorded as 0/8. Moreover, in the series with mice (300 mg/kg, 2.0 h), the “Tox (motor impairment or sedation), number of animals affected/number of animals tested” value is listed as 0/8.
On to `CC(C)C(OC(=O)Nc1ccc(S(N)(=O)=O)cc1)C(C)C` [Compound 8, 2,4-dimethylpentan-3-yl (4-sulfamoylphenyl)carbamate], for which the melting point fell in the range of 193 to 194 °C. Moreover, on hCA I, the Ki stood at 21 nM. Besides, on hCA II, the Ki is 3.7 nM. In addition, at hCA IV, the “K1, hCA IV” value is on record as “medium potency inhibitors” and the Ki was 452 nM. Further, the Ki at hCA VII was 35.4 nM. Moreover, in the series with 6 Hz psychomotor seizure (0.5 h), the responders at 30 mg/kg came to 0%, the responders at 100 mg/kg was 0% and the responders at 300 mg/kg was 50%. For the same compound, in the series on 6 Hz psychomotor seizure (2 h), the responders at 30 mg/kg was determined as 0%, the responders at 100 mg/kg is 0% and the responders at 300 mg/kg is 25%. In addition, in series [1] (0.5 h), the responders at 30 mg/kg was 0%, the responders at 100 mg/kg is 0% and the responders at 300 mg/kg was 25%. Moreover, in series [1] (2 h), the responders at 30 mg/kg is 50%, the responders at 100 mg/kg is 100% and the responders at 300 mg/kg was 100%. Further, the “Tox (motor impairment or sedation), number of animals affected/number of animals tested” value in the series on mice (30 mg/kg, 0.5 h) is 0/8. Moreover, the “Tox (motor impairment or sedation), number of animals affected/number of animals tested” value in the series with mice (30 mg/kg, 2.0 h) is 0/8. Besides, in the series with mice (100 mg/kg, 0.5 h), the “Tox (motor impairment or sedation), number of animals affected/number of animals tested” value is 0/8. Moreover, the “Tox (motor impairment or sedation), number of animals affected/number of animals tested” value in the series on mice (100 mg/kg, 2.0 h) was 0/8. For the same compound, in the series on mice (300 mg/kg, 0.5 h), the “Tox (motor impairment or sedation), number of animals affected/number of animals tested” value is on record as 1/8. Besides, the “Tox (motor impairment or sedation), number of animals affected/number of animals tested” value in the series on mice (300 mg/kg, 2.0 h) was 0/8.
As to `CCC(CC)COC(=O)Nc1ccc(S(N)(=O)=O)cc1` [Compound 6, 2-ethylbutyl (4-sulfamoylphenyl)carbamate], the melting point fell in the range of 162 to 165 °C. Further, the Ki at hCA I was determined as 169 nM. In addition, at hCA II, the Ki worked out at 5.2 nM. Further, the Ki at hCA IV was 1690 nM. On hCA VII, the Ki was 52 nM. Besides, in the series with 6 Hz psychomotor seizure (0.5 h), the responders at 30 mg/kg came out at 0%, the responders at 100 mg/kg is 25% and the responders at 300 mg/kg is 25%. For the same compound, in the series with 6 Hz psychomotor seizure (2 h), the responders at 30 mg/kg was determined as 0%, the responders at 100 mg/kg was 0% and the responders at 300 mg/kg is 25%. In series [1] (0.5 h), the responders at 30 mg/kg was found to be 0%, the responders at 100 mg/kg turned out to be 0% and the responders at 300 mg/kg turned out to be 0%. Moreover, in series [1] (2 h), the responders at 30 mg/kg came to 0%, the responders at 100 mg/kg worked out at 0% and the responders at 300 mg/kg was 0%. Moreover, in the series on mice (30 mg/kg, 0.5 h), the “Tox (motor impairment or sedation), number of animals affected/number of animals tested” value was 0/8. Besides, the “Tox (motor impairment or sedation), number of animals affected/number of animals tested” value in the series with mice (30 mg/kg, 2.0 h) was 0/8. Further, the “Tox (motor impairment or sedation), number of animals affected/number of animals tested” value with mice (100 mg/kg, 0.5 h) is on record as 0/8. In the series with mice (100 mg/kg, 2.0 h), the “Tox (motor impairment or sedation), number of animals affected/number of animals tested” value is recorded as 0/8. Further, the “Tox (motor impairment or sedation), number of animals affected/number of animals tested” value with mice (300 mg/kg, 0.5 h) was 0/8. Further, the “Tox (motor impairment or sedation), number of animals affected/number of animals tested” value in the series with mice (300 mg/kg, 2.0 h) is recorded as 0/8.
Take `CCCC(CCC)COC(=O)Nc1ccc(S(N)(=O)=O)cc1` [Compound 3, 2-propylpentyl (4-sulfamoylphenyl)carbamate]: the melting point was 176 to 177 °C. Besides, the Ki on hCA I came out at 485 nM. The Ki at hCA II was found to be 19.6 nM. In addition, on hCA IV, the Ki was greater than 10000 nM. In addition, the Ki on hCA VII was greater than 10000 nM. Besides, in the series on 6 Hz psychomotor seizure (0.5 h), the responders at 30 mg/kg is 0%, the responders at 100 mg/kg worked out at 0% and the responders at 300 mg/kg is 25%. In addition, in the series on 6 Hz psychomotor seizure (2 h), the responders at 30 mg/kg was found to be 0%, the responders at 100 mg/kg turned out to be 0% and the responders at 300 mg/kg was 0%. For the same compound, in series [1] (0.5 h), the responders at 30 mg/kg turned out to be 0%, the responders at 100 mg/kg amounted to 0% and the responders at 300 mg/kg is 0%. In addition, in series [1] (2 h), the responders at 30 mg/kg was 0%, the responders at 100 mg/kg worked out at 0% and the responders at 300 mg/kg is 0%. In addition, the “Tox (motor impairment or sedation), number of animals affected/number of animals tested” value in the series with mice (30 mg/kg, 0.5 h) is reported as 0/8. For the same compound, the “Tox (motor impairment or sedation), number of animals affected/number of animals tested” value with mice (30 mg/kg, 2.0 h) is 0/8. Moreover, the “Tox (motor impairment or sedation), number of animals affected/number of animals tested” value in the series on mice (100 mg/kg, 0.5 h) is given as 0/8. In addition, in the series with mice (100 mg/kg, 2.0 h), the “Tox (motor impairment or sedation), number of animals affected/number of animals tested” value is on record as 0/8. Also, the “Tox (motor impairment or sedation), number of animals affected/number of animals tested” value with mice (300 mg/kg, 0.5 h) is listed as 0/8. Moreover, in the series with mice (300 mg/kg, 2.0 h), the “Tox (motor impairment or sedation), number of animals affected/number of animals tested” value is reported as 0/8.
